“Also recorded” adds a separate entry of the source.
Tests used:
[1] = test system: IMQ-induced psoriasis-like inflammation; assay: Imiquimod (IMQ)-induced psoriasis-like dermal inflammation; assay type: in vivo; conditions: BALB/c mice
Description: The anti-inflammatory activity of Compound A in the imiquimod (IMQ)-induced psoriasis-like dermal inflammation in BALB/c mice was investigated.

[2] = test system: Collagen-Induced Arthritis; assay: Collagen-Induced Arthritis Model; assay type: in vivo, DBA/1 mice; conditions: 60 mg/kg once daily, vs vehicle only treated animals
Procedure: Furthermore, the efficacy of Compound A in the Collagen-Induced Arthritis Model in DBA/1 mice was tested. Immunization with Type II Chicken Collagen led to the development of arthritis. In comparison with vehicle only treated animals, mice treated once daily with 60 mg/kg Compound A led to a reduction in arthritis index scores, paw measurements, and histopathology scores.

CD4+ T cells = assay: Differentiation of CD4+ T cells (Th1, Th17, Treg); assay type: cell-based
Description: Th1 and Th17 cells are main players contributing to organ specific autoimmune disease and inflammation.

[3] = test system: house dust-induced atopic dermatitis; assay: House dust-induced atopic dermatitis model; assay type: in vivo, mice
Description: The potential anti-inflammatory and anti-pruritic effects of Compound A were investigated in a house dust-induced atopic dermatitis model in mice.

[4] = test system: PBMCs from subjects with ulcerative colitis; assay: Pro-inflammatory cytokine expression in PBMCs from subjects with ulcerative colitis (cytometric bead array); assay type: cell-based, human
Description: The anti-inflammatory effect of Compound A in PBMCs from subjects with ulcerative colitis was studied. The expression of pro-inflammatory cytokines IL-1β, IL 6, IL-8, IL-10 and TNF-α was investigated using a cytometric bead array (CBA).

[5] = oral 30 mg/kg/day QD or BID x 21 days, in comparison with controls

## CCNc1cc(Nc2ccc(C(=O)N3CCC(N4CCOCC4)CC3)cc2OC)nc2[nH]cc(C(F)(F)F)c12 [Compound A, (4-((4-(ethylamino)-3-(trifluoromethyl)-1H-pyrrolo[2,3-b]pyridin-6-yl)amino)-3-methoxyphenyl)(4-morpholinopiperidin-1-yl)methanone]
[1]; 45 mg/kg PO BID x 9 days
  IMQ-induced psoriasis-like inflammation (ear swelling): significantly (p<0.05) protective effects
[1]; 60 mg/kg PO BID x 9 days
  IMQ-induced psoriasis-like inflammation (ear swelling): significantly (p<0.05) protective effects
[2]
  arthritis index scores: reduction
  histopathology scores: reduction
  paw measurements: reduction
CD4+ T cells
  development of Treg cells: enhanced the development of Treg cells; also recorded: enhancing the development of Treg cells
  differentiation of Th1 and Th17 cells: inhibiting the differentiation of Th1 and Th17 cells; also recorded: inhibition of Th1 and Th7 cells
[3]; in comparison with vehicle controls and the positive control abrocitinib
  T cell subset levels in the skin (immunohistochemical staining): decreased all subset levels in the skin
[3]; [5]
  IL-4 level in the skin: markedly reduced
  IL-13 level in the skin: markedly reduced
  IL-17 level in the skin: markedly reduced
[4]
  expression of pro-inflammatory cytokines IL-1β, IL 6, IL-8, IL-10 and TNF-α: reducing pro inflammatory cytokines in PBMCs; also recorded: statistically significant reduction
